Measured values taken from patent US9133158B2, “Bicyclic dihydroisoquinoline-1-one derivatives” (Hoffmann-La Roche Inc., priority 2011, dated 2015).

How the values were obtained:
[1] = molecular target: T1, human CYP11B1 (Homo sapiens, UniProt P15538); test: G-402 cellular enzyme assay, human CYP11B1 (cortisol release, HTRF); format: cell-based; settings: G-402 cells, 1 μM Deoxycortisol
T1 construct: expressed in transfected cells
T1 sequence (P15538 25-503): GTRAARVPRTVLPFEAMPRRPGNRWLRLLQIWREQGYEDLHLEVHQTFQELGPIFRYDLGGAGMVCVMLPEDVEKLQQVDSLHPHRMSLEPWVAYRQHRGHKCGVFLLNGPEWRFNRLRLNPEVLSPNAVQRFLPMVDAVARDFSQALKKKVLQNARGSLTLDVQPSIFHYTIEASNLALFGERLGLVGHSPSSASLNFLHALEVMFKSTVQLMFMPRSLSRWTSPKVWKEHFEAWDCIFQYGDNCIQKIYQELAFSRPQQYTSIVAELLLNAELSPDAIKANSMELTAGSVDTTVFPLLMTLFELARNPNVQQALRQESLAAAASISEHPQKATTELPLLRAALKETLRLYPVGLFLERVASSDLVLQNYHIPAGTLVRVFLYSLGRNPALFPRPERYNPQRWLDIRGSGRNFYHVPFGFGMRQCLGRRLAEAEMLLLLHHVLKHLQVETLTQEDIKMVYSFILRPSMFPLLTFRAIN
How it was run: (§1)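 Steroid output from supernatants, quantified by HTRF as cortisol for CYP11B1 or aldosterone for CYP11B2, gave EC50 values by least-squares 4-parameter MMF fitting against inhibitor concentration. Stably transfected G-402 cells carrying the human enzyme received 1 μM deoxycortisol or 1 μM deoxycorticosterone respectively, 16 h, DMEM/F12 with 2.5% charcoal-stripped FCS.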

[2] = molecular target: T2, human CYP11B2 (Homo sapiens, UniProt P19099); test: G-402 cellular enzyme assay, human CYP11B2 (aldosterone release, HTRF); format: cell-based; settings: G-402 cells, 1 μM Deoxycorticosterone
T2 construct: expressed in transfected cells
T2 sequence (P19099 25-503): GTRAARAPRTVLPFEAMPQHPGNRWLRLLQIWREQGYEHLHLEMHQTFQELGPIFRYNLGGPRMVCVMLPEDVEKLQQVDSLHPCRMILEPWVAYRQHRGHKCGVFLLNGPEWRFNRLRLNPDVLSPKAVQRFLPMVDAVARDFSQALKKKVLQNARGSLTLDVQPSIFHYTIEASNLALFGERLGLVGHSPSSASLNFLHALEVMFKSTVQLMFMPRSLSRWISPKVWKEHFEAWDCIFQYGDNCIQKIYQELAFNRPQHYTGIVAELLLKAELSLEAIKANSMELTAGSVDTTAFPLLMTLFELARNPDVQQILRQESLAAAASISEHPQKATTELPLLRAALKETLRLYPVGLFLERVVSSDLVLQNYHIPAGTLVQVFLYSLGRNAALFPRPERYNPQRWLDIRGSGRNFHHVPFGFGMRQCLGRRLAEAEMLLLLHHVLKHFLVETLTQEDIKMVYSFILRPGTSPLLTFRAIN
How it was run: as §1

EC50 [1] [nM] | EC50 [2] [nM] | SMILES
4280 | 108 | CC1(C)c2cc(Cl)ccc2C(=O)N1c1cccnc1 [Example 128, 5-Chloro-3,3-dimethyl-2-pyridin-3-yl-2,3-dihydro-isoindol-1-one]
3160 | 63.6 | CC1(C)c2cc(Cl)ccc2C(=O)N1c1cncc(F)c1 [Example 129, 5-Chloro-2-(5-fluoro-pyridin-3-yl)-3,3-dimethyl-2,3-dihydro-isoindol-1-one]
240 | 15.5 | COc1cncc(N2C(=O)c3ccc(Cl)cc3C2(C)C)c1 [Example 130, 5-Chloro-2-(5-methoxy-pyridin-3-yl)-3,3-dimethyl-2,3-dihydro-isoindol-1-one]
264 | 11.9 | CC1(C)c2cc(Cl)ccc2C(=O)N1c1cncc(OC(F)F)c1 [Example 131, 5-Chloro-2-(5-difluoromethoxy-pyridin-3-yl)-3,3-dimethyl-2,3-dihydro-isoindol-1-one]
527 | 37.8 | CC(O)c1cncc(N2C(=O)c3ccc(Cl)cc3C2(C)C)c1 (centres unmarked) [Example 132, 5-Chloro-2-[5-(1-hydroxy-ethyl)-pyridin-3-yl]-3,3-dimethyl-2,3-dihydro-isoindol-1-one]
1370 | 98.6 | CC1(C)c2cc(Cl)ccc2C(=O)N1c1cncc(CO)c1 [Example 133, 5-Chloro-2-(5-hydroxymethyl-pyridin-3-yl)-3,3-dimethyl-2,3-dihydro-isoindol-1-one]
424 | 18.6 | Cc1nccn1Cc1cncc(N2C(=O)c3ccc(Cl)cc3C2(C)C)c1 [Example 134, 5-Chloro-3,3-dimethyl-2-[5-(2-methyl-imidazol-1-ylmethyl)-pyridin-3-yl]-2,3-dihydro-isoindol-1-one]
523 | 93.1 | O=C1c2ccc(Cl)cc2CCN1c1cncc(N2CCC[C@H]2CO)c1 [Example 135, 6-Chloro-2-[5-((S)-2-hydroxymethyl-pyrrolidin-1-yl)-pyridin-3-yl]-3,4-dihydro-2H-isoquinolin-1-one]
2660 | 102 | O=C1c2ccc(Cl)cc2CN1c1cncc(N2CCC[C@H]2CO)c1 [Example 136, 5-Chloro-2-[5-((S)-2-hydroxymethyl-pyrrolidin-1-yl)-pyridin-3-yl]-2,3-dihydro-isoindol-1-one]
108 | 10.1 | O=C1c2ccc(Cl)cc2CCN1c1cncc(N2CC[C@@H](O)C2)c1 [Example 137, 6-Chloro-2-[5-((R)-3-hydroxy-pyrrolidin-1-yl)-pyridin-3-yl]-3,4-dihydro-2H-isoquinolin-1-one]
193 | 16.2 | O=C1c2ccc(Cl)cc2CN1c1cncc(N2CC[C@@H](O)C2)c1 [Example 138, 5-Chloro-2-[5-((R)-3-hydroxy-pyrrolidin-1-yl)-pyridin-3-yl]-2,3-dihydro-isoindol-1-one]
11200 | 953 | COc1cncc(N2CCc3nc(O)ccc3C2=O)c1 [Example 139, 2-Hydroxy-6-(5-methoxy-pyridin-3-yl)-7,8-dihydro-6H-[1,6]naphthyridin-5-one]
70.4 | 11.8 | O=C1c2ccc(Cl)cc2CCN1c1cncc(Cn2ccnc2)c1 [Example 140, 6-Chloro-2-(5-imidazol-1-ylmethyl-pyridin-3-yl)-3,4-dihydro-2H-isoquinolin-1-one]
1310 | 40.5 | CC(C)c1nccn1Cc1cncc(N2CCc3cc(Cl)ccc3C2=O)c1 [Example 141, 6-Chloro-2-[5-(2-isopropyl-imidazol-1-ylmethyl)-pyridin-3-yl]-3,4-dihydro-2H-isoquinolin-1-one]
981 | 80.2 | Cc1nccn1Cc1cncc(N2CCc3cc(Cl)ccc3C2=O)c1 [Example 142, 6-Chloro-2-[5-(2-methyl-imidazol-1-ylmethyl)-pyridin-3-yl]-3,4-dihydro-2H-isoquinolin-1-one]
4450 | 258 | CCc1nc(C)cn1Cc1cncc(N2CCc3cc(Cl)ccc3C2=O)c1 [Example 143, 6-Chloro-2-[5-(2-ethyl-4-methyl-imidazol-1-ylmethyl)-pyridin-3-yl]-3,4-dihydro-2H-isoquinolin-1-one]

EC50 [1] [nM] | EC50 [2] [nM] | SMILES
140 | 23.7 | O=C1c2ccc(Cl)cc2CCN1c1cncc(CN2CCCC(O)C2)c1 (centres unmarked) [Example 144, 6-Chloro-2-[5-(3-hydroxy-piperidin-1-ylmethyl)-pyridin-3-yl]-3,4-dihydro-2H-isoquinolin-1-one]
1900 | 1500 | CC(C)S(=O)(=O)NCc1cncc(N2CCc3cc(Cl)ccc3C2=O)c1 [Example 145, Propane-2-sulfonic acid [5-(6-chloro-1-oxo-3,4-dihydro-1H-isoquinolin-2-yl)-pyridin-3-ylmethyl]-amide]
114 | 39.8 | O=C1c2ccc(Cl)cc2CCN1c1cncc(CN2CCC(O)C2)c1 (centres unmarked) [Example 146, 6-Chloro-2-[5-(3-hydroxy-pyrrolidin-1-ylmethyl)-pyridin-3-yl]-3,4-dihydro-2H-isoquinolin-1-one]
247 | 36.7 | O=C1c2ccc(Cl)cc2CCN1c1cncc(CN2CC[C@@H](O)C2)c1 [Example 147, 6-Chloro-2-[5-((R)-3-hydroxy-pyrrolidin-1-ylmethyl)-pyridin-3-yl]-3,4-dihydro-2H-isoquinolin-1-one]
139 | 45.1 | O=C1c2ccc(Cl)cc2CCN1c1cncc(CN2CC[C@H](O)C2)c1 [Example 148, 6-Chloro-2-[5-((S)-3-hydroxy-pyrrolidin-1-ylmethyl)-pyridin-3-yl]-3,4-dihydro-2H-isoquinolin-1-one]
1920 | 126 | O=C1c2ccc(Cl)cc2CCN1c1cncc(CN2CCC[C@H]2CO)c1 [Example 149, 6-Chloro-2-[5-((S)-2-hydroxymethyl-pyrrolidin-1-ylmethyl)-pyridin-3-yl]-3,4-dihydro-2H-isuquinolin-1-one]
5320 | 227 | O=C1c2ccc(Cl)cc2CCN1c1cncc(CN2CCC[C@@H]2CO)c1 [Example 150, 6-Chloro-2-[5-((R)-2-hydroxymethyl-pyrrolidin-1-ylmethyl)-pyridin-3-yl]-3,4-dihydro-2H-isoquinolin-1-one]
3920 | 101 | Cc1cc(C)n(Cc2cncc(N3CCc4cc(Cl)ccc4C3=O)c2)n1 [Example 151, 6-Chloro-2-[5-(3,5-dimethyl-pyrazol-1-ylmethyl)-pyridin-3-yl]-3,4-dihydro-2H-isoquinolin-1-one]
11600 | 295 | CS(=O)(=O)NCc1cncc(N2CCc3cc(Cl)ccc3C2=O)c1 [Example 152, N-[5-(6-Chloro-1-oxo-3,4-dihydro-1H-isoquinolin-2-yl)-pyridin-3-ylmethyl]-methanesulfonamide]
15000 | 302 | CC(=O)NCc1cncc(N2CCc3cc(Cl)ccc3C2=O)c1 [Example 153, N-[5-(6-Chloro-1-oxo-3,4-dihydro-1H-isoquinolin-2-yl)-pyridin-3-ylmethyl]-acetamide]
193 | 74.7 | O=C1c2ccc(Cl)cc2CCN1c1cncc(CN2CCOCC2)c1 [Example 154, 6-Chloro-2-(5-morpholin-4-ylmethyl-pyridin-3-yl)-3,4-dihydro-2H-isoquinolin-1-one]
4090 | 132 | O=C1CCCN1Cc1cncc(N2CCc3cc(Cl)ccc3C2=O)c1 [Example 155, 6-Chloro-2-[5-(2-oxo-pyrrolidin-1-ylmethyl)-pyridin-3-yl]-3,4-dihydro-2H-isoquinolin-1-one]
337 | 43.9 | O=C1c2ccc(Cl)cc2CCN1c1cncc(CN2CCS(=O)(=O)CC2)c1 [Example 156, 6-Chloro-2-[5-(1,1-dioxo-1λ^6-thiomorpholin-4-ylmethyl)-pyridin-3-yl]-3,4-dihydro-2H-isoquinolin-1-one]
11200 | 352 | O=C1OCCN1Cc1cncc(N2CCc3cc(Cl)ccc3C2=O)c1 [Example 157, 6-Chloro-2-[5-(2-oxo-oxazolidin-3-ylmethyl)-pyridin-3-yl]-3,4-dihydro-2H-isoquinolin-1-one]
6030 | 182 | O=C1NCCN1Cc1cncc(N2CCc3cc(Cl)ccc3C2=O)c1 [Example 158, 6-Chloro-2-[5-(2-oxo-imidazolidin-1-ylmethyl)-pyridin-3-yl]-3,4-dihydro-2H-isoquinolin-1-one]
